Data on two compounds can be found in patent US6783947B1, “Protecting groups for biological labeling” (Dade Behring Marburg GmbH, priority 1999, dated 2004).

Where a name gives a salt, the structure may show the parent alone.

A short description of data set [1]: Solubility. It counts as physicochemical. To be noted: over a wide pH range.
Data set [2] can be described thus: Stability of alkylating reagent in the presence of reducing agent TCEP (TLC). It counts as physicochemical. To be noted: 5 mM each in phosphate buffer pH 7, sixteen (16) hours, room temperature.
The nature of data set [3]: Storage stability of derivatizing agent, monitored by total LOCI assay signal modulation (three-reagent protocol). Format: physicochemical. The protocol:
A 50 μL mixture of hcy-ABA-sensitizer beads (0.1 mg/ml) and 2 mM TCEP is added to 5 μL hcy serum calibrator in a reaction cuvette, followed by the addition of 50 μL assay buffer. The mixture is incubated for 417 sec. Then, 50 μL of 5 mM BABA is added and followed by 45 μL assay buffer. Following incubation for 157 sec., 50 μL of Ab-coated acceptor beads (at 0.25-0.5 mg/ml) is added. After incubation for 154 sec., the sample is read.
In Table 2, the three-reagent protocol is used as described previously, with 5 mM BABA stored in a different pH buffer as R-2 (reagent 2).
The activity of BABA is monitored by the amount of total assay signal modulation obtained by LOCI using the three-reagent protocol.
The three-reagent assay protocol using CABA-phosphate as derivatizing agent is also assessed. Similar results are obtained with hcy serum calibrators as in the three-reagent protocol using BABA (not shown). The stability of CABA is also studied. The activity of CABA-phosphate as derivatizing agent is monitored by the amount of total assay signal modulation obtained by LOCI using the three-reagent protocol. In Table 3, the three-reagent assay protocol is used with CABA-phosphate stored at two temperatures in pH 9.0 as R-2; mixed hcy-sensitizer beads and TCEP as R-1; mixed Ab-acceptor beads and alkaline phosphatase as R-3.

The target of data set [4] is T1, alkaline phosphatase (Sigma, human placenta) (Homo sapiens, UniProt P05187).
T1 construct: alkaline phosphatase (Sigma, human placenta); purchased Sigma; host or cells: human placenta (tissue-derived)
As to the kind of experiment: Deprotection of phosphate protecting group by alkaline phosphatase (TLC, NMR). Format: biochemical. As to conditions: mixture of BABA-phosphate and CABA-phosphate, 5 mg in 1 mL pH 8-9 NaOD/D2O, 1 mg (15 units) enzyme, 15 minutes, room temperature. How it is done: A mixture of BABA-phosphate and CABA-phosphate (resulting from preparation of BABA-phosphate), 5 mg in 1 mL pH 8-9 NaOD/D2O is treated with 1 mg (15 units) of alkaline phosphatase (Sigma, human placenta) for 15 minutes at room temperature.
Reaction of the crude product of the reaction with alkaline phosphatase, for about ten (10) minutes, with cysteine, results in the disappearance of the first product, deprotected alkylating reagent, and appearance of a more polar product. The latter is assumed to be an adduct of the alkylating reagent and cysteine.

T1 sequence (P05187 23-506): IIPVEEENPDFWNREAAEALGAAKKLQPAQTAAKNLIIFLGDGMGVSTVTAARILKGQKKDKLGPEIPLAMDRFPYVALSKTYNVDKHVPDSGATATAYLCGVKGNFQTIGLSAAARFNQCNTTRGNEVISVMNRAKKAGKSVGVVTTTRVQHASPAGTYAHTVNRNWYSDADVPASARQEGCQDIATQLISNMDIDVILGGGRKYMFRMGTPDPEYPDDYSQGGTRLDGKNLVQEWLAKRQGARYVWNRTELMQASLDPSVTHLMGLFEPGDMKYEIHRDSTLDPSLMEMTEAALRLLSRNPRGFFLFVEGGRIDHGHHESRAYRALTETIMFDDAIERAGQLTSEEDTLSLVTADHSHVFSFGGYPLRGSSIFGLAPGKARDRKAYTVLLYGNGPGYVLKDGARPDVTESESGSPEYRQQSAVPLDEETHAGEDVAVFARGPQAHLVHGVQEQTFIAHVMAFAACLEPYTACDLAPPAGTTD

Regarding `O=C(O)c1ccc(/C(=C/Cl)OP(=O)(O)O)cc1` [CABA-phosphate, 4-(chloroacetyl)benzoate enol-phosphate sodium salt], in data set [1], the solubility entry was “readily soluble”. Further, in data set [2], the “reaction of the protected alkylating reagent with TCEP (TLC)” value is given as “resistant to reaction with TCEP”. Further, the “% Modulation (0 to 60 μM)” value in data set [3] (5 mM in 50 mM borate buffer pH 9.0, stored @4° C., 1 wk) was determined as 54%; in data set [3] (5 mM in 50 mM borate buffer pH 9.0, stored @4° C., 2 wks), 56%; in data set [3] (5 mM in 50 mM borate buffer pH 9.0, stored @4° C., 5 wks), 55%; in data set [3] (5 mM in 50 mM borate buffer pH 9.0, stored @4° C., 7 wks), 54%; in data set [3] (5 mM in 50 mM borate buffer pH 9.0, stored @4° C., 10 wks), 51%; in data set [3] (5 mM in 50 mM borate buffer pH 9.0, stored @4° C., 13 wks), 45%. Further, the “% Modulation (0 to 60 μM)” value was 57% in data set [3] (5 mM in 50 mM borate buffer pH 9.0, stored @4° C., o/n); 45% in data set [3] (5 mM in 50 mM borate buffer pH 9.0, stored @37° C., 1 wk); 51% in data set [3] (5 mM in 50 mM borate buffer pH 9.0, stored @37° C., 2 wks); 50% in data set [3] (5 mM in 50 mM borate buffer pH 9.0, stored @37° C., 5 wks); 51% in data set [3] (5 mM in 50 mM borate buffer pH 9.0, stored @37° C., 7 wks); 44% in data set [3] (5 mM in 50 mM borate buffer pH 9.0, stored @37° C., 10 wks). Moreover, the “% Modulation (0 to 60 μM)” value is 35% in data set [3] (5 mM in 50 mM borate buffer pH 9.0, stored @37° C., 13 wks) and 55% in data set [3] (5 mM in 50 mM borate buffer pH 9.0, stored @37° C., o/n). In data set [3] (three-reagent protocol, Table 3), the “shelf life compared with BABA” value is listed as “much longer shelf life than BABA”. For the same compound, the “removal of the phosphate group by alkaline phosphatase (TLC, NMR)” value in data set [4] is listed as “removed”.
Consider `O=C(O)c1ccc(C(=O)CBr)cc1` [BABA, bromoacetylbenzoic acid, reference compound], for which the “stability of BABA in solution” value in data set [3] (even at the optimum condition, pH 6.0) is on record as “limited stability”.
